Values after ≈ are worked out from the molar mass of the structure shown. Blank lines part the entries; values can stand above or below the compound they belong to.
What was measured:
[1] = NBT assay of antioxidant activity (superoxide scavenging); format: biochemical; conditions: NBT Test (O2^-•); read-out: Scavenging activity of the free radicals IC50
Method: For the inactivation of bacteria by heat, one started at a concentration of 4×10^9 CFU/mL. The bacteria were then centrifuged at 4000 rpm for 10 minutes, the supernatant discarded and replaced with 1 ml of 0.9% NaCl saline solution. The heat inactivation occurred at the temperature of 85°C for 15 minutes.
NBT assay (nitrobluetetrazolium) evaluates the capability of locking the formation of the superoxide radical ^·O2^-; the more ^·O2^- is produced, the more NBT is reduced in formazan. The capability of molecules and compounds to inhibit the NBT reduction by ^·O2^- in presence of β-nicotinammide adenin dinucleotide (β-NADH) and phenazinamethosulfate (PM) is then tested.
The spectrophometric reading was performed by kinetics, by measuring the OD values (λmax 560 nm) immediately and after 15 sec. The absorbance variation was used to calculate the inhibition percentage with respect to the control (solution of EtOH and of the solvent in which the different samples are dissolved).
To this purpose, on previously heat inactivated mixtures of bacteria, 8 serial dilutions were performed according to the scheme reported in figure 1; 20 µL of each dilution were then used in all assays of antioxidant activity according to the protocol indications.

[2] = tested on: Haemophilus influenzae DSM 4690; assay: MIC determination by plate microdilution; format: cell-based; conditions: DSM4690, H. influenzae, 24 hours at 37°C, anaerobiosis
Method: (§1) The supernatant from Streptococcus salivarius K12 was used as reference. To this purpose, the Minimum Inhibitory Concentration (MIC) was evaluated. The pathogen microorganisms were the following ones: Staphylococcus aureus NCTC 6571, Streptococcus pyogenes LMG 21599, Streptococcus pneumoniae DSM 20566, Moraxella chatarralis DSM 9143, Haemophilus influenzae DSM 4690.
(§2) L. reuteri LMG P-27481 and S. salivarius K12 were subcultivated on agar plates from cryopreserved cultures. All pathogens, except for H. influenzae DSM 4690, were cultivated on agar BHI (Brain Heart Infusion, Oxoid). The subculture of H. influenzae DSM 4690 requested the presence of traces of lysed red blood cells in the medium.
(§3) In short, the supernatants were obtained for centrifugation of liquid cultures of L. reuteri LMG P27481 and S. salivarius K12, sterilized by filtration. The aliquots were diluted in series for determining the vital count. The supernatants were diluted in series from 100% to 0.19% (v:v).
(§4) The pathogen strains were dosed optically by using the spectrophotometer at OD600 between 0.08-0.100 and diluted 100 times in Schaedler broth or sterile supernatants (to obtain the concentration of 100%).
(§5) All samples were incubated for 24 hours at 37°C under aerobic conditions for all strains except for H. influenzae DSM 4690 which required anaerobiosis conditions.
(§6) Moreover, a control with serial dilutions of DMSO was performed in order to exclude that the presence of this diluent could exert an inhibitory effect on the pathogens.

[3] = tested on: Moraxella chatarralis DSM 9143; assay: MIC determination by plate microdilution; format: cell-based; conditions: DSM9143, M. chatarralis, 24 hours at 37°C
Method: as §1, §2, §3, §4, §5, §6

[4] = tested on: Staphylococcus aureus NCTC 6571; assay: MIC determination by plate microdilution; format: cell-based; conditions: NCTC6571, S. aureus, 24 hours at 37°C
Method: as §1, §2, §3, §4, §5, §6

[5] = tested on: Streptococcus pneumoniae DSM 20566; assay: MIC determination by plate microdilution; format: cell-based; conditions: DSM20566, S. pneumoniae, 24 hours at 37°C
Method: as §1, §2, §3, §4, §5, §6

[6] = tested on: Streptococcus pyogenes LMG 21599; assay: MIC determination by plate microdilution; format: cell-based; conditions: LMG21599, S. pyogenes, 24 hours at 37°C
Method: as §1, §2, §3, §4, §5, §6

all tested pathogens = assay: MIC determination, summary over all tested pathogens; format: cell-based; conditions: range over all tested pathogens
Method: as §1, §2, §3, §4
All samples were incubated for 24 hours at 37°C under aerobic conditions for all strains except for H. influenzae DSM 4690 which required anaerobiosis conditions. […]

L. reuteri LMG P-27481 = assay: Tolerance test: vitality of L. reuteri LMG P-27481 in presence of resveratrol in simulated saliva; format: cell-based, Lactobacillus (Limosilactobacillus) reuteri
Method: The simulated saliva (SS) was prepared with 8 g/l of sodium chloride, 0.19 g/l monobasic potassium phosphate, 2.38 g/l sodium phosphate (pH 6.8) and then sterilized (Alanzi et al., 2018). The cryopreserve stock of L. reuteri LMG P-27481 strain was controlled in order to verify the purity thereof and then cultivated on MRS Broth (De Man Rogosa Sharpe, Difco) under microaerophilic conditions at 37°C for 18 hours. The cultures in MRS broth of L. reuteri LMG P-27481 grown under microaerophilic conditions at 37°C for 18 hours were centrifuged, the supernatant discarded an the pellets were washed with sterile demineralized water. […] A test tube with only SS was used as positive control of survival. L. reuteri LMG P-27481 was analysed according to the standard of Mc Farland in order to obtain a vital load of 3×10^8 CFU/ml in the test tubes. […] Aliquots were collected after 5, 10, 30 and 60 minutes for determining vitality. All plates were incubated for 72 hours at 37°C under anaerobic conditions.

HaCat. cells = format: cell-based
From the text: MTT test is a colorimetric assay which exploits the capability of cells to convert, at mitochondrial level, the bromide of 3-(4,5-dimethylthiazol-2-il)-2,5-diphenyltetrazolium in the related salt, by evaluating the cell viability. The produced salt is solubilized in organic solvent in order to obtain a homogeneous solution in the single well, measurable spectrophotometrically. Besides, the crystal violet assay is based upon the capability of the homonymous […] dye to bind to DNA of the cells in culture and to return in this way a reliable estimation of the number of cells. […] Before colouring, washings in PBS were carried out. 50 µL of dye (MTT (5 mg/mL in PBS); Crystal violet (2,5 mg/mL in MeOH 20%)) were then added to each well and left in incubation at 37°C for 2 hours (MTT) or stirred on tilting plate for 20 min (Crystal violet). The exceeding dye was washed and the dye was solubilized in organic solvent (DMSO) in order to obtain a homogenous solution in the single well, measurable spectrophotometrically. The measurement of absorbance of the single wells was performed in a plate reader, at the wavelength of 570 nm, by normalizing the values with respect to the control.

IL-37 = assay: Gene expression by real-time PCR in 3D model of in vitro reconstituted skin (EpiDermFT); format: cell-based; conditions: vs control, after 24 hours
From the text: (§7) Evaluation of the gene expression of some cytokines (IL-25, IL-33, IL-37) and of filaggrin (FLG), involucrin (IVL) and loricrin (LOR) in a complex 3D model of in vitro reconstituted skin (EpiDermFT - MATTEK).
(§8) The 3D models of in vitro reconstituted skin constitute optimum systems capable of simulating well the functionalities of a complex organ such as skin and the interactions which are established between numerous cell populations composing it. Then, they try to free from the excessive simplification represented by one single cell line put in culture. The cytokines IL-25 and IL-33 are pro-inflammatory cytokines over-produced by the keratinocytes and by the surface layers of the skin after an insult; on the contrary the cytokine IL-37 is an anti-inflammatory cytokine. At last, the proteins filaggrin (FLG), involucrin (IVL) and loricrin (LOR), are proteins produced by epidermis, fundamental in the constitution of the barrier which protects from external agents and respond to cytokine signals. In particular, during an inflammatory event, the expression of these genes is sub-regulated; on the contrary, an anti-inflammatory state tends to over-express the genes FLG, IVL, LOR.
(§9) The extraction of total RNA was performed by QlAzol Lysis Reagent by following the instructions provided by the firm (Qiagen). The retro-transcription reactions were performed on 4 µg of total RNA by following the instructions provided by the protocol of the kit PROMEGA "GoTaq 2 Step RT qPCR System". The amplification for determining the gene expression, by real-time PCR technique, was performed on BioRad CFX96 machine and the related quantification was performed by the method of 2^-ΔΔCt.

filaggrin (FLG) = assay: as above; format: cell-based; conditions: vs control
From the text: as §7, §8, §9

involucrin (IVL) = assay: as above; format: cell-based; conditions: vs control
From the text: as §7, §8, §9

loricrin (LOR) = assay: as above; format: cell-based; conditions: vs control
From the text: as §7, §8, §9

IC50 [1]: 665 ± 26 µM
Structure (SMILES): O=C1O[C@H]([C@@H](O)CO)C(O)=C1O [Ascorbic Acid]

Structure (SMILES): Oc1ccc(/C=C/c2cc(O)cc(O)c2)cc1 [Resveratrol, 3,5,4'-trihydroxy-trans-stilbene]
MIC [2]: 80 µg/mL (≈ 350 µM)
MIC [3]: 160 µg/mL (≈ 701 µM)
MIC [4]: 160 µg/mL (≈ 701 µM)
MIC [5]: 80 µg/mL (≈ 350 µM)
MIC [6]: 160 µg/mL (≈ 701 µM)
inhibiting concentrations (all tested pathogens): 80 to 160 µg/mL
%S (% of survival of microorganisms) (L. reuteri LMG P-27481; SS + 0.5 mg/ml Resveratrol, T5): 99.9%
%S (% of survival of microorganisms) (L. reuteri LMG P-27481; SS + 0.5 mg/ml Resveratrol, T10): 99.6%
%S (% of survival of microorganisms) (L. reuteri LMG P-27481; SS + 0.5 mg/ml Resveratrol, T30): 99.3%
%S (% of survival of microorganisms) (L. reuteri LMG P-27481; SS + 0.5 mg/ml Resveratrol, T60): 99.2%
%S (% of survival of microorganisms) (L. reuteri LMG P-27481; SS + 1 mg/ml Resveratrol, T5): 99.8%
%S (% of survival of microorganisms) (L. reuteri LMG P-27481; SS + 1 mg/ml Resveratrol, T10): 99.6%
%S (% of survival of microorganisms) (L. reuteri LMG P-27481; SS + 1 mg/ml Resveratrol, T30): 99.6%
%S (% of survival of microorganisms) (L. reuteri LMG P-27481; SS + 1 mg/ml Resveratrol, T60): 99.4%
%S (% of survival of microorganisms) (L. reuteri LMG P-27481; SS + 2.5 mg/ml Resveratrol, T5): 99.9%
%S (% of survival of microorganisms) (L. reuteri LMG P-27481; SS + 2.5 mg/ml Resveratrol, T10): 99.6%
%S (% of survival of microorganisms) (L. reuteri LMG P-27481; SS + 2.5 mg/ml Resveratrol, T30): 99.5%
%S (% of survival of microorganisms) (L. reuteri LMG P-27481; SS + 2.5 mg/ml Resveratrol, T60): 99.2%
%S (% of survival of microorganisms) (L. reuteri LMG P-27481; SS + 5 mg/ml Resveratrol, T5 (5 minutes contact), 3×10^8 CFU/ml): 99.7%
%S (% of survival of microorganisms) (L. reuteri LMG P-27481; SS + 5 mg/ml Resveratrol, T10): 99.5%
%S (% of survival of microorganisms) (L. reuteri LMG P-27481; SS + 5 mg/ml Resveratrol, T30): 99.3%
%S (% of survival of microorganisms) (L. reuteri LMG P-27481; SS + 5 mg/ml Resveratrol, T60): 99.0%
%S (% of survival of microorganisms) (L. reuteri LMG P-27481; SS + 5 mg/ml Resveratrol, T60, listed as resveratrol): higher than 99%
cell count (crystal violet) (HaCat. cells): decrease in vitality and cell count
cell viability (MTT) (HaCat. cells): decrease in vitality
expression of IL-37 (IL-37): under-expression
expression of FLG (filaggrin (FLG)): minimum expression variations
expression of IVL (involucrin (IVL)): minimum expression variations
expression of LOR (loricrin (LOR)): minimum expression variations

— patent EP4427758A1, “NEW SYNERGISTIC ANTI-INFLAMMATORY, ANTIOXIDANT AND ANTIBACTERIAL ASSOCIATION” (NOOS S.r.l., priority 2023, dated 2024)
